Assay results reported in US9670217B2, “Process for preparing chlorins and their pharmaceutical uses” (UNIVERSIDADE DE COIMBRA, priority 2008, dated 2017).
“And” between values parts separate entries of the source, which are not always exact repeats. Identical values can stand only once.

Columns and labels:
[1] = system: CT26 (murine colon carcinoma); assay: Cell photosensitization, 748 nm diode laser, resazurin; type: cell-based, mouse; settings: for concentration of sensitizer required to kill 90% of cells (LD90): 6 J/cm^2 diode laser irradiation at 28.5 mW
[2] = Fluorescence quantum yield; type: physicochemical; settings: ethanol
Experimental: The absorptions of both reference and sample solutions were matched at ca 0.2 at the excitation wavelength of 515.5 nm, and the solutions were diluted by a factor 10 before collecting the fluorescence. The fluorescence quantum yield was obtained from the ratio of the fluorescence bands of the sample vs the reference, multiplied by the fluorescence quantum yield of the reference, 0.012 according to [12], after correction for the difference of refractive indexes of ethanol and toluene.
This is indicative of little aggregation between the molecules, which exist mostly as monomers at these concentrations in the solvents studied. Table 1 presents typical red and infrared molar absorption coefficients (εmax) and wavelength maxima. The same table also presents representative fluorescence quantum yields (ΦF) of Luzitins. The fluorescence quantum yields decrease of these molecules decrease in the presence of chlorine substituents, a fingerprint of the heavy atom effect expected for such molecules.

[3] = Singlet oxygen quantum yield and lifetime (1270 nm phosphorescence); type: physicochemical; settings: air-saturated ethanol; for ΦΔ (singlet oxygen quantum yield): phenalenone as reference
Experimental: Absorption spectra were recorded on a Shimadzu UV-2100 spectrophotometer or with a Carry 50 Biospectrophotometer (Varian, Mulgrave, USA). Fluorescence spectra were measured with a Spex Fluorolog 3 spectrophotometer, with correction for the wavelength dependence system (RCA C31034 photomultiplier), or with a PerkinElmer LS 50 spectrofluorimeter. Transient absorption spectra were measured with an Applied Photophysics LKS 60 nanosecond laser flash photolysis kinetic spectrometer, using the third harmonic of a Spectra-Physics Quanta Ray GCR 130-01 Nd/YAG laser for excitation, a Hamamatsu 1P28 photomultiplier and a Hewlett-Packard Infinium oscilloscope (1 GS/s). Flash photolysis measurements were made in the presence of air and in argon saturated solutions. Photoacoustic calorimetry employed the same Nd/YAG laser, a home-made front-face photoacoustic cell with a 2.25 MHz Panametrics transducer (model 5676) and a Tektronix DSA 601 transient recorder. Room-temperature singlet-oxygen phosphorescence was measured at 1270 nm with a Hamamatsu R5509-42 photomultiplier, cooled to 193 K in a liquid nitrogen chamber (Products for Research model PC176TSCE005), following laser excitation of aerated solutions at 355 nm, using an adapted Applied Photophysics spectrometer. Singlet oxygen emission at 1270 nm was also monitored with a liquid nitrogen-cooled germanium detector (North Coast) coupled to a Tectronix Digitizing scope (TDS 520B), following sample excitation with 5 ns laser pulses of the third harmonic (355 nm) generated by a Q-switched Nd:YAG laser (Continuum Surelite II).
Singlet oxygen quantum yields in ethanol were obtained using a procedure described by some of us, using phenalenone as reference. The literature value for the singlet oxygen quantum yield obtained with phenalenone in ethanol is ΦΔ=0.95 [38].
All the singlet oxygen emissions measured in aerated ethanol solutions are very well described by mono-exponential decays, with typical singlet oxygen lifetimes (τΔ). The ΦΔ values of Table 1 were obtained by the procedures described above and are representative of these photosensitisers.
An air-saturated solution of Luzitin-Cl2Hep in ethanol with an absorbance ca. 0.2 at 355 nm was excited in a 1 cm quartz cuvette by a pulsed Nd:YAG laser, and the singlet oxygen emission was followed at 1270 nm, using the equipment and methods previously described. The intensity of the singlet oxygen phosphorescence was studied as a function of the laser intensity. A similar study was made with phenalenone in ethanol, at a concentration matching the absorbance of Luzitin-Cl2Hep at 355 nm. […] Various laser energies were employed and from the slopes of the energy dependence of singlet oxygen emission and the value of ΦΔ=0.95 for phenalenone in this ethanol, we obtained ΦΔ=0.78 for Luzitin-Cl2Hep.

[4] = system: PC-3 (human prostate carcinoma); assay: Cytotoxicity in the dark, resazurin assay; type: cell-based
Experimental: The cell lines employed in laser irradiation were the HT-29 (human colon carcinoma), PC-3 (human prostate carcinoma), SW2 (human small cell lung cancer), A-549 (human non-small cell lung cancer). S91/I3 (mouse melanoma) and CT26 (mouse colon carcinoma). They were used both for cytotoxicity and photocytotoxicity experiments. PC-3. SW2 and S91113 cells were cultured in RPMI-1640 medium (Sigma-Aldrich, Steinheim, Germany) and HT-29, A-549 and CT26 cells were cultured in Dulbecco's Modified Eagle Medium (DMEM) (Cambrex Bioscience, Verviers, Belgium). Both cell culture mediums were supplemented with 10% heat-inactivated Fetal Bovine Serum (FBS) (Cambrex Bioscience, Verviers, Belgium) and 100 IU/ml penicillin-100 μg/ml streptomycin (Cambrex Bioscience, Verviers, Belgium). The DMEM medium used for CT26 cells was also supplemented with HEPES 10 mM. Cell lines were maintained in 75 cm^2 flasks (Orange Scientific, Braine-l'Alleud, Belgium) at 37° C. in humidified atmosphere with 5% CO2. For the in vitro studies, cells at 85-90% confluence, were detached with Trypsin-Versene-EDTA solution (Cambrex Bioscience, Verviers, Belgium), counted and seeded in flat-bottom 96-well plates at the desired densities.
Cell viability assay. In the end of the experiences cell viability was evaluated by the resazurin reduction assay. Briefly, resazurin (Sigma-Aldrich, Steinhelm, Germany) stock solution (0.1 mg/ml in phosphate buffer saline (PBS) pH 7.4) was diluted 10% in culture medium without FBS or antibiotics and 200 μl were added to the cells in each well. Plates were incubated for 3-4 h at 37° C. The absorbance values of each well were measured at 540 nm and 630 nm using a microplate reader Multiskan Ex (Thermo-Electron Corporation, Vartaa, Finland).
Cytotoxicity. Cells were seeded in flat-bottom 96-well plates (Orange Scientific, Braine-l'Alleud, Belgium) in 100 μl of culture medium and were allowed to adhere overnight. The photosensitizer was added to the cells (diluted in 100 μl culture medium) at final concentrations between 0.01 and 1 mM. Each concentration was tested in quadruplicate. The incubation periods in the dark at 37° C. were two times the doubling time for the tested cell line. After the incubation the cell viability was evaluated. In parallel control experiments, cells were incubated without the drug. Cytotoxicity was quantified by expressing cell death relatively to untreated cells (% of control cells). The results were plotted as dose response curves (% of cell death as a function of the concentration of the DRUG), which allow the determination of the concentration that inhibit 50% of cell growth (IC50).

[5] = system: HT-29 (human adenocarcinoma); assay: Cell photosensitization, 748 nm diode laser, resazurin; type: cell-based; settings: for concentration of sensitizer required to kill 90% of cells (LD90): 6 J/cm^2 diode laser irradiation at 28.5 mW
[6] = system: A-549 (human non-small cell lung carcinoma); assay: as above; type: cell-based; settings: 6 J/cm^2 diode laser irradiation at 28.5 mW

| SMILES | cell kill ([1]; 10 μM, laser light dose 6 J/cm^2, incubation 18 hours) [%] | ΦF (fluorescence quantum yield) [2] | τΔ (singlet oxygen lifetime) [3] [μsec] | ΦΔ (singlet oxygen quantum yield) [3] | highest concentration that causes relatively no effect in viability in the dark ([4]; PC-3, dark) [mM] | concentration of sensitizer required to kill 90% of cells (LD90) [5] | concentration of sensitizer required to kill 90% of cells (LD90) [1] [µM] | concentration of sensitizer required to kill 90% of cells (LD90) [6] [µM] | IC50 ([4]; PC-3, incubation 72 h in the dark, read-out: IC50 dark toxicity) [µM] | cell kill ([5]; 1 μM, laser light dose 6 J/cm^2, incubation 18 hours) [%] |
| --- | --- | --- | --- | --- | --- | --- | --- | --- | --- | --- |
| O=S(=O)(O)c1ccc(Cl)c(-c2c3nc(c(-c4c(Cl)ccc(S(=O)(=O)O)c4Cl)c4ccc([nH]4)c(-c4c(Cl)ccc(S(=O)(=O)O)c4Cl)c4nc(c(-c5c(Cl)ccc(S(=O)(=O)O)c5Cl)c5ccc2[nH]5)CC4)CC3)c1Cl [Luzitin-Cl2, 5,10,15,20-tetrakis(2,6-dichloro-3-sulfonylphenyl)bacteriochlorin] | 100 | 0.0062 | 15.4 | 0.85 | 0.05 | 50 µM | – | – | – | – |
| CCNS(=O)(=O)c1ccc(Cl)c(-c2c3nc(c(-c4c(Cl)ccc(S(=O)(=O)NCC)c4Cl)c4ccc([nH]4)c(-c4c(Cl)ccc(S(=O)(=O)NCC)c4Cl)c4nc(c(-c5c(Cl)ccc(S(=O)(=O)NCC)c5Cl)c5ccc2[nH]5)CC4)CC3)c1Cl [Luzitin-Cl2Et, 5,10,15,20-tetrakis(2,6-dichloro-3-N-ethylsulfamoylphenyl)bacteriochlorin] | – | 0.0081 | 13.7 | 0.66 | – | 10 µM | 5 | 10 | – | – |
| O=S(=O)(O)c1ccc(Cl)c(-c2c3nc(c(-c4cc(S(=O)(=O)O)ccc4Cl)c4ccc([nH]4)c(-c4cc(S(=O)(=O)O)ccc4Cl)c4nc(c(-c5cc(S(=O)(=O)O)ccc5Cl)c5ccc2[nH]5)CC4)CC3)c1 [Luzitin-Cl, 5,10,15,20-tetrakis(2-chloro-5-sulfonylphenyl)bacteriochlorin] | – | 0.0403 | 13.6 | 0.43 | – | – | – | – | 600 | – |
| CNS(=O)(=O)c1ccc(F)c(-c2c3nc(c(-c4cc(S(=O)(=O)NC)ccc4F)c4ccc([nH]4)c(-c4cc(S(=O)(=O)NC)ccc4F)c4nc(c(-c5cc(S(=O)(=O)NC)ccc5F)c5ccc2[nH]5)CC4)CC3)c1 [Luzitin-FMet, 5,10,15,20-tetrakis(2-fluoro-5-N-methylsulfamoylphenyl)bacteriochlorin] | – | 0.0589 | 14.1 | 0.71 | – | 0.5 µM and 1 µM | 1.0 | 0.5 | – | 100 |
